Assay results as given in patent publication US20240158446A1, “CYCLIC COMPOUND HAVING SELECTIVE INHIBITORY ACTION ON KRAS OVER HRAS AND NRAS” (CHUGAI SEIYAKU KABUSHIKI KAISHA, priority 2021, published 2024).

Key:
[1] = target: GDP-bound NRAS wild-type protein (Homo sapiens, UniProt P01111); assay: Binding to NRAS by surface plasmon resonance (SPR), Single Cycle Kinetics; conditions: for NRAS/KRAS (ratio of KD value for NRAS to KD value for KRAS) / NRAS/KRAS (ratio of KD value with respect to NRAS to KD value with respect to KRAS): SPR, GDP-bound NRAS wild-type protein vs GDP-bound KRAS wild-type protein; for NRAS/KRAS (ratio of KD value with respect to GDP-bound NRAS wild-type protein to KD value with respect to KRAS): SPR KD ratio NRAS/KRAS, class symbols
GDP-bound NRAS wild-type protein, sequence (P01111 whole entry): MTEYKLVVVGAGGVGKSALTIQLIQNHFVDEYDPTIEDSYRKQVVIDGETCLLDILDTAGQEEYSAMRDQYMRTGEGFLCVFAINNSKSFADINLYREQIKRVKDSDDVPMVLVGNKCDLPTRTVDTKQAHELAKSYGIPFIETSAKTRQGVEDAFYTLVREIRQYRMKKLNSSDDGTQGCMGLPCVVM

[2] = target: GDP-bound HRAS wild-type protein (Homo sapiens, UniProt P01112); assay: Binding to HRAS by surface plasmon resonance (SPR), Single Cycle Kinetics; conditions: for HRAS/KRAS (ratio of KD value for HRAS to KD value for KRAS) / HRAS/KRAS (ratio of KD value with respect to HRAS to KD value with respect to KRAS): SPR, GDP-bound HRAS wild-type protein vs GDP-bound KRAS wild-type protein; for HRAS/KRAS (ratio of KD value with respect to GDP-bound HRAS wild-type protein to KD value with respect to KRAS): SPR KD ratio HRAS/KRAS, class symbols
GDP-bound HRAS wild-type protein, sequence (P01112 whole entry): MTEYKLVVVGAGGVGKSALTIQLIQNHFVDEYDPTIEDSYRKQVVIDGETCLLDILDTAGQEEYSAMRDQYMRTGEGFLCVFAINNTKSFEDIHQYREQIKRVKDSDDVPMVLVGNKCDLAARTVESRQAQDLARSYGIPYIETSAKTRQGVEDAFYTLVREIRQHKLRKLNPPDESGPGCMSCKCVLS

CCCOC[C@H]1C(=O)N[C@@H]([C@@H](C)CC)C(=O)N(C)CC(=O)N(C)[C@H]2C/C=C\CCN(C2=O)[C@@H](Cc2ccc(C)cc2)C(=O)N(C)CC(=O)N[C@@H](CCc2cc(F)c(C(F)(F)F)c(F)c2)C(=O)N2C[C@H](OCC)C[C@H]2C(=O)NC2(CC(C)(C)C2)C(=O)N(C)[C@@H](C2CCCC2)C(=O)N(C)[C@H](C(=O)N(C)CC)CC(=O)N1C [PP1577]
NRAS/KRAS (ratio of KD value for NRAS to KD value for KRAS) ([1]; KD ratio class): B (a compound having 3 or more and less than 10 is denoted as B)
HRAS/KRAS (ratio of KD value for HRAS to KD value for KRAS) ([2]; KD ratio class): B (a compound having 3 or more and less than 10 is denoted as B)

CCC[C@H]1C(=O)N[C@@H]([C@@H](C)CC)C(=O)N(C2CC2)CC(=O)N(C)[C@H]2C/C=C\CCN(C2=O)[C@@H](Cc2ccc(C)cc2)C(=O)N(C)CC(=O)N[C@@H](CCc2cc(Cl)c(C(F)F)c(Cl)c2)C(=O)N2C[C@H](OCC)C[C@H]2C(=O)NC2(CC(C)(C)C2)C(=O)N(C)[C@@H](C2CCCC2)C(=O)N(C)[C@H](C(=O)N(C)C)CC(=O)N1C [PP2877]
NRAS/KRAS (ratio of KD value with respect to GDP-bound NRAS wild-type protein to KD value with respect to KRAS) [1]: A (a compound having 10 or more and less than 20 is denoted as A)
HRAS/KRAS (ratio of KD value with respect to GDP-bound HRAS wild-type protein to KD value with respect to KRAS) [2]: A (a compound having 10 or more and less than 20 is denoted as A)

CCO[C@@H]1C[C@H]2C(=O)NC3(CCC3)C(=O)N(C)[C@@H](C(CC)CC)C(=O)N(C)[C@H](C(=O)N(C)C)CC(=O)N(C)[C@H]3CCCC/C=C/c4ccc(cc4)C[C@@H](C(=O)N(C)CC(=O)N[C@@H](CCc4ccc(Cl)c(Cl)c4)C(=O)N2C1)N1CC/C=C\C[C@@H](C1=O)N(C)C(=O)CN(C1CC1)C(=O)[C@H]([C@@H](C)CC)NC3=O [PP2605]
NRAS/KRAS (ratio of KD value with respect to GDP-bound NRAS wild-type protein to KD value with respect to KRAS) [1]: AA (a compound having 20 or more is denoted as AA)
HRAS/KRAS (ratio of KD value with respect to GDP-bound HRAS wild-type protein to KD value with respect to KRAS) [2]: A (a compound having 10 or more and less than 20 is denoted as A)

CCO[C@@H]1C[C@H]2C(=O)NC3(CCC3)C(=O)N(C)[C@@H](C3CCCC3)C(=O)N(C)[C@H](C(=O)N3CCOCC3)CC(=O)N(C)[C@@H](CC3CC3)C(=O)N[C@@H]([C@@H](C)CC)C(=O)N(C)CC(=O)N(C)[C@H]3C/C=C\CCN(C3=O)[C@@H](Cc3ccc(F)cc3C)C(=O)N(C)CC(=O)N[C@@H](CCc3cc(F)c(C(F)(F)F)c(F)c3)C(=O)N2C1 [PP1495]
NRAS/KRAS (ratio of KD value for NRAS to KD value for KRAS) ([1]; KD ratio class): A (a compound having 10 or more and less than 20 is denoted as A)
HRAS/KRAS (ratio of KD value for HRAS to KD value for KRAS) ([2]; KD ratio class): B (a compound having 3 or more and less than 10 is denoted as B)

CCOC[C@H]1C(=O)N[C@@H]([C@@H](C)CC)C(=O)N(C)CC(=O)N(C)[C@H]2C/C=C\CCN(C2=O)[C@@H](Cc2ccc(OC)cc2)C(=O)N(C)CC(=O)N[C@@H](CCc2ccc(C(F)(F)F)c(OC)c2)C(=O)N2C[C@@H](C)C[C@H]2C(=O)NC2(CC(C)(C)C2)C(=O)N(C)[C@@H](C2CCCC2)C(=O)N(C)[C@H](C(=O)N(C)CC)CC(=O)N1C [PP2702]
NRAS/KRAS (ratio of KD value with respect to GDP-bound NRAS wild-type protein to KD value with respect to KRAS) [1]: A (a compound having 10 or more and less than 20 is denoted as A)
HRAS/KRAS (ratio of KD value with respect to GDP-bound HRAS wild-type protein to KD value with respect to KRAS) [2]: B (a compound having 3 or more and less than 10 is denoted as B)

CCO[C@@H]1C[C@H]2C(=O)NC3(CC(C)(C)C3)C(=O)N(C)[C@@H](C3CCCC3)C(=O)N(C)[C@H](C(=O)N(C)C)CC(=O)N(C)[C@@H](CC(C)C)C(=O)N[C@@H]([C@@H](C)CC)C(=O)N(C)CC(=O)N(C)[C@H]3C/C=C\CCN(C3=O)[C@@H](Cc3ccc4c(c3)CCC4(F)F)C(=O)N(C)CC(=O)N[C@@H](CCc3ccc(C(F)(F)F)c(OC)c3)C(=O)N2C1 [PP2695]
NRAS/KRAS (ratio of KD value with respect to GDP-bound NRAS wild-type protein to KD value with respect to KRAS) [1]: A (a compound having 10 or more and less than 20 is denoted as A)
HRAS/KRAS (ratio of KD value with respect to GDP-bound HRAS wild-type protein to KD value with respect to KRAS) [2]: B (a compound having 3 or more and less than 10 is denoted as B)

CC[C@H](C)[C@@H]1NC(=O)[C@H](CC)N(C)C(=O)C[C@@H](C(=O)N(C)C)N(C)C(=O)[C@H](C2CCCC2)N(C)C(=O)C2(CCC2)NC(=O)[C@@H]2CCN2C(=O)[C@H](CCc2cc(F)c(C(F)(F)F)c(F)c2)NC(=O)CN(C)C(=O)[C@H](Cc2ccc(C(F)(F)F)cc2)N2CCCCC[C@@H](C2=O)N(C)C(=O)CN(C)C1=O [PP0654]
NRAS/KRAS (ratio of KD value with respect to NRAS to KD value with respect to KRAS) [1]: B (a compound having 3 or more and less than 10 is denoted as B)
HRAS/KRAS (ratio of KD value with respect to HRAS to KD value with respect to KRAS) [2]: B (a compound having 3 or more and less than 10 is denoted as B)

C=CC[C@@H]1NC(=O)[C@H](CC2CC2)N(C)C(=O)C[C@@H](C(=O)N(C)CC=C)N(C)C(=O)[C@H](C2CCCC2)N(C)C(=O)C2(CCC2)NC(=O)[C@@H]2C[C@@H](OCC)CN2C(=O)[C@H](CCc2cc(F)c(C(F)(F)F)c(F)c2)NC(=O)CN(C)C(=O)[C@H](Cc2ccc(C(F)(F)F)cc2)N2CC/C=C\C[C@@H](C2=O)N(C)C(=O)CN(C)C1=O [PP1557]
NRAS/KRAS (ratio of KD value for NRAS to KD value for KRAS) ([1]; KD ratio class): A (a compound having 10 or more and less than 20 is denoted as A)
HRAS/KRAS (ratio of KD value for HRAS to KD value for KRAS) ([2]; KD ratio class): A (a compound having 10 or more and less than 20 is denoted as A)

CC[C@H](C)[C@@H]1NC(=O)[C@H](CC(C)C)N(C)C(=O)C[C@@H](C(=O)N2CCOCC2)N(C)C(=O)[C@H](C2CCCC2)N(C)C(=O)[C@](C)(CC)NC(=O)[C@@H]2CCCN2C(=O)[C@H](CCc2cc(F)c(C(F)(F)F)c(F)c2)NC(=O)CN(C)C(=O)[C@H](Cc2ccc(C(F)(F)F)cc2)N2CCCCC[C@@H](C2=O)N(C)C(=O)CN(C)C1=O [PP0500]
NRAS/KRAS (ratio of KD value with respect to NRAS to KD value with respect to KRAS) [1]: B (a compound having 3 or more and less than 10 is denoted as B)
HRAS/KRAS (ratio of KD value with respect to HRAS to KD value with respect to KRAS) [2]: B (a compound having 3 or more and less than 10 is denoted as B)

CCC[C@H]1C(=O)N[C@@H]([C@@H](C)CC)C(=O)N(C)CC(=O)N(C)[C@H]2C/C=C\CCN(C2=O)[C@@H](Cc2ccc(C)cc2)C(=O)N(C)CC(=O)N[C@@H](CCc2ccc(C(F)(F)F)c(OC)c2)C(=O)N2C[C@H](OCC)C[C@H]2C(=O)NC2(CC(C)(C)C2)C(=O)N(C)[C@@H](CC(C)C)C(=O)N(C)[C@H](C(=O)N(C)C)CC(=O)N1C [PP3008]
NRAS/KRAS (ratio of KD value for NRAS to KD value for KRAS) [1]: A (a compound having 10 or more and less than 20 is denoted as A)
HRAS/KRAS (ratio of KD value for HRAS to KD value for KRAS) [2]: A (a compound having 10 or more and less than 20 is denoted as A)

CC[C@H](C)[C@@H]1NC(=O)[C@H](CC(C)C)N(C)C(=O)C[C@@H](C(=O)N2C[C@@H](C)O[C@@H](C)C2)N(C)C(=O)[C@H](C2CCCC2)N(C)C(=O)C2(CCCC2)NC(=O)[C@@H]2CCCN2C(=O)[C@H](CCc2ccc(C(F)(F)F)c(Cl)c2)NC(=O)CN(C)C(=O)[C@H](Cc2ccc(F)cc2)N2CCCCC[C@@H](C2=O)N(C)C(=O)CN(C)C1=O [PP1151]
NRAS/KRAS (ratio of KD value for NRAS to KD value for KRAS) [1]: B (a compound having 3 or more and less than 10 is denoted as B)
HRAS/KRAS (ratio of KD value for HRAS to KD value for KRAS) [2]: B (a compound having 3 or more and less than 10 is denoted as B)

CCCOC[C@H]1C(=O)N[C@@H]([C@@H](C)CC)C(=O)N(C2CC2)CC(=O)N(C)[C@H]2C/C=C\CCN(C2=O)[C@@H](Cc2ccc(C(F)(F)F)cc2)C(=O)N(C)CC(=O)N[C@@H](CCc2ccc(C(F)(F)F)c(OC)c2)C(=O)N2C[C@H](OCC)C[C@H]2C(=O)N(C)C2(CCC2)C(=O)N(C)[C@@H](C2CCCC2)C(=O)N(C)[C@H](C(=O)N(C)C)CC(=O)N1C [PP2318]
NRAS/KRAS (ratio of KD value for NRAS to KD value for KRAS) [1]: A (a compound having 10 or more and less than 20 is denoted as A)
HRAS/KRAS (ratio of KD value for HRAS to KD value for KRAS) [2]: A (a compound having 10 or more and less than 20 is denoted as A)

CCOC[C@H]1C(=O)N[C@@H]([C@@H](C)CC)C(=O)N(C2CC2)CC(=O)N(C)[C@H]2C/C=C\CCN(C2=O)[C@@H](Cc2ccc(C(F)(F)F)cc2)C(=O)N(C)CC(=O)N[C@@H](CCc2ccc(C(F)(F)F)c(OC)c2)C(=O)N2C[C@H](OCC)C[C@H]2C(=O)N(C)C2(CCC2)C(=O)N(C)[C@@H](C(CC)CC)C(=O)N(C)[C@H](C(=O)N(C)C)CC(=O)N1C [PP2315]
NRAS/KRAS (ratio of KD value for NRAS to KD value for KRAS) [1]: A (a compound having 10 or more and less than 20 is denoted as A)
HRAS/KRAS (ratio of KD value for HRAS to KD value for KRAS) [2]: A (a compound having 10 or more and less than 20 is denoted as A)

CCO[C@@H]1C[C@H]2C(=O)NC3(CCC3)C(=O)N(C)[C@@H](C3CCCC3)C(=O)N(C)[C@H](C(=O)N3CCOCC3)CC(=O)N(C)[C@@H](CC3CCCC3)C(=O)N[C@@H]([C@@H](C)CC)C(=O)N(C)CC(=O)N(C)[C@H]3CCCCCN(C3=O)[C@@H](Cc3ccc(C(F)(F)F)cc3)C(=O)N(C)CC(=O)N[C@@H](CCc3cc(F)c(C(F)(F)F)c(F)c3)C(=O)N2C1 [PP0685]
NRAS/KRAS (ratio of KD value with respect to NRAS to KD value with respect to KRAS) [1]: B (a compound having 3 or more and less than 10 is denoted as B)
HRAS/KRAS (ratio of KD value with respect to HRAS to KD value with respect to KRAS) [2]: B (a compound having 3 or more and less than 10 is denoted as B)

CCO[C@@H]1C[C@H]2C(=O)NC3(CCC3)C(=O)N(C)[C@@H](C3CCCC3)C(=O)N(C)[C@H](C(=O)N3CCOCC3)CC(=O)N(C)[C@@H](CC3CCCCC3)C(=O)N[C@@H]([C@@H](C)CC)C(=O)N(C)CC(=O)N(C)[C@H]3CCCCCN(C3=O)[C@@H](Cc3ccc(C(F)(F)F)cc3)C(=O)N(C)CC(=O)N[C@@H](CCc3cc(F)c(C(F)(F)F)c(F)c3)C(=O)N2C1 [PP0686]
NRAS/KRAS (ratio of KD value with respect to NRAS to KD value with respect to KRAS) [1]: B (a compound having 3 or more and less than 10 is denoted as B)
HRAS/KRAS (ratio of KD value with respect to HRAS to KD value with respect to KRAS) [2]: B (a compound having 3 or more and less than 10 is denoted as B)
